Measured values from ChEMBL document CHEMBL3045476, “Prediction of antiproliferative activity of some flavone derivatives: QSAR study” (2009).

What follows are compounds tested on SK-HEP1 (assay: Antiproliferative activity against Homo sapiens (human) SKHEP1 cells). Details: SK-HEP1, read-out: pGI50 (converted).
Format: functional
In the case of CO/N=C(/COc1ccc2oc(-c3ccccc3)cc(=O)c2c1)c1ccc(OC)cc1, the GI50 is reported as 2 µM. For CO/N=C(\C)COc1ccc2c(=O)c(-c3ccccc3)coc2c1, the GI50 was 6.39 µM. O=c1c(OC/C(=N/O)c2ccccc2)c(-c2ccccc2)oc2ccccc12 showed a GI50 of 7.21 µM. In the case of O=c1c(OC/C(=N/O)c2ccc(F)cc2)c(-c2ccccc2)oc2ccccc12, the GI50 is reported as 6.9 µM. Work on C/C(COc1c(-c2ccccc2)oc2ccccc2c1=O)=N\O yielded a GI50 of 2.6 µM. Compound CO/N=C(\C)COc1c(-c2ccccc2)oc2ccccc2c1=O has a GI50 of 9.2 µM. CO/N=C(\C)COc1ccc2c(=O)cc(-c3ccccc3)oc2c1 gave a GI50 of 2 µM. Compound C/C(COc1ccc2oc(-c3ccccc3)cc(=O)c2c1)=N\O has a GI50 of 1.9 µM. Work on C/C(COc1ccc2c(=O)c(-c3ccccc3)coc2c1)=N\O yielded a GI50 of 7.29 µM. O=c1cc(-c2ccccc2)oc2ccc(OC/C(=N/O)c3ccc(F)cc3)cc12 was tested, and the GI50 was 2.8 µM. For O=c1cc(-c2ccccc2)oc2cc(OC/C(=N/O)c3ccccc3)ccc12, the GI50 was 2 µM. In the case of CO/N=C(/COc1c(-c2ccccc2)oc2ccccc2c1=O)c1ccc(F)cc1, the GI50 is reported as 13 µM. CO/N=C(/COc1c(-c2ccccc2)oc2ccccc2c1=O)c1ccc(OC)cc1 showed a GI50 of 11 µM. Compound CO/N=C(/COc1ccc2oc(-c3ccccc3)cc(=O)c2c1)c1ccc(F)cc1 has a GI50 of 7.9 µM. O=c1cc(-c2ccccc2)oc2cc(OC/C(=N/O)c3ccc(F)cc3)ccc12 showed a GI50 of 2.3 µM. Compound CO/N=C(/COc1ccc2c(=O)c(-c3ccccc3)coc2c1)c1ccccc1 has a GI50 of 7.39 µM. Compound COc1ccc(/C(COc2ccc3c(=O)cc(-c4ccccc4)oc3c2)=N\O)cc1 has a GI50 of 5.59 µM. O=c1c(-c2ccccc2)coc2cc(OC/C(=N/O)c3ccccc3)ccc12 gave a GI50 of 6.39 µM. Work on CO/N=C(/COc1c(-c2ccccc2)oc2ccccc2c1=O)c1ccccc1 yielded a GI50 of 7.11 µM. Compound CO/N=C(/COc1ccc2c(=O)cc(-c3ccccc3)oc2c1)c1ccccc1 has a GI50 of 2 µM. CO/N=C(/COc1ccc2c(=O)cc(-c3ccccc3)oc2c1)c1ccc(F)cc1 was tested, and the GI50 was 3.3 µM. Compound CO/N=C(/COc1ccc2c(=O)cc(-c3ccccc3)oc2c1)c1ccc(OC)cc1 has a GI50 of 4.79 µM. For CO/N=C(/COc1ccc2c(=O)c(-c3ccccc3)coc2c1)c1ccc(F)cc1, the GI50 was 6.09 µM. Work on CO/N=C(/COc1ccc2c(=O)c(-c3ccccc3)coc2c1)c1ccc(OC)cc1 yielded a GI50 of 5.29 µM. With O=c1c(-c2ccccc2)coc2cc(OC/C(=N/O)c3ccc(F)cc3)ccc12 the GI50 was 6.6 µM. C/C(COc1ccc2c(=O)cc(-c3ccccc3)oc2c1)=N\O was tested, and the GI50 was 2.8 µM. Compound CO/N=C(/COc1ccc2oc(-c3ccccc3)cc(=O)c2c1)c1ccccc1 has a GI50 of 8.2 µM. COc1ccc(/C(COc2ccc3c(=O)c(-c4ccccc4)coc3c2)=N\O)cc1 was tested, and the GI50 was 5.5 µM. With COc1ccc(/C(COc2c(-c3ccccc3)oc3ccccc3c2=O)=N\O)cc1 the GI50 was 2.7 µM.
